Square brackets hold non-standard residues; d marks the D form. Ends that are not written are not given here. Peptide text beside a SMILES is read from it. pGlu = O=C1CC[C@@H](C(=O)O)N1
What was measured:
[1] = test system: C. gigas AKHR2; assay: Bioluminescence assay in CHO/G-16 cells expressing C. gigas AKHR2; format: cell-based, Crassostrea gigas
Method: (§1) This receptor, therefore, remains an orphan. CHO cells stably expressing the human G-protein 16 (CHO/G16) were maintained in DMEM/F-12 + GlutaMAX^TM (Life Technologies) medium with 200 μg/ml hygromycin B (Invitrogen), 5% fetal calf serum (FCS) (Life Technologies), 1% (v/v) glutaMAX (Life Technologies), 100 U/ml penicillin(Life Technologies), and 100 μg/ml streptomycin (Life Technologies). To express the AKH receptor, 5 × 10^4 CHO/G16 cells were transfected with 3 μg pIRES vector containing the AKH receptor insert using JetPEI® transfection reagent (Polyplus), while 3 μg empty pIRES vector was used as a control. All tested peptides were from Genemed Synthesis, Inc. and initially dissolved in demethylformamide (DMF) followed by dilution in PBS. The purities of the peptides and peptide contents were determined by HPCL and mass spectrometry as supplied by Genemed Synthesis. The bioluminescence assay was performed as described earlier[9][30] using a Victor2 1420 Multilabel Counter (Perkin Elmer).

[2] = test system: C. gigas AKHR1-D; assay: Bioluminescence assay in CHO/G-16 cells expressing C. gigas AKHR1 splice variant D; format: cell-based, Crassostrea gigas
Description: (§2) We stably expressed all four cloned splice variants from C. gigas AKHR1 (Fig. 2) in Chinese Hamster Ovary (CHO) cells. These cells were also stably transfected with the promiscuous G protein, G-16, and transiently transfected with apoaequorin. An activation of the receptor by its ligand in these pretreated CHO cells would result in an IP3/Ca^2+ second messenger cascade, which could be measured as a bioluminescence signal.
as §1, with “CHO” for “This receptor, therefore, remains an orphan. CHO”, “PBS.” for “PBS. The purities of the peptides and peptide contents were determined by HPCL and mass spectrometry as supplied by Genemed Synthesis. The bioluminescence assay was performed as described earlier[9][30] using a Victor2 1420 Multilabel Counter (Perkin Elmer).”

[3] = target: C. gigas AKHR1-A (Magallana gigas, UniProt B1VCT5); assay: Bioluminescence assay in CHO/G-16 cells stably expressing C. gigas AKHR1-A (apoaequorin, IP3/Ca2+ cascade); format: cell-based, Crassostrea gigas; conditions: 10^−6 M peptide, CHO/G-16/AKHR1-A cells, Fig. 5A, n = 3
C. gigas AKHR1-A, sequence (B1VCT5 entry or part of it): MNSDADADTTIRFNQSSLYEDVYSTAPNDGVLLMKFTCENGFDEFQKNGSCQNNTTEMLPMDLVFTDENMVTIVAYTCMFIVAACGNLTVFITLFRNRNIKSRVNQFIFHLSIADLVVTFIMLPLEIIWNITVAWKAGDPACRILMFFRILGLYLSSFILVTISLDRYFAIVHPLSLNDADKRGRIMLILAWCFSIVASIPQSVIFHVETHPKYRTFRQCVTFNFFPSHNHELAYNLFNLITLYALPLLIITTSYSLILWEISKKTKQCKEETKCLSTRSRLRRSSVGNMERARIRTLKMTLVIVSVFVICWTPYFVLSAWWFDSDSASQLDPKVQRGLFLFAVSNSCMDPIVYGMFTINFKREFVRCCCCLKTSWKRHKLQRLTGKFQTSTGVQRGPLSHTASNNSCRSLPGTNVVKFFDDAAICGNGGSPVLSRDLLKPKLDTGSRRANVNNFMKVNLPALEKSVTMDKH
Description: as §2
as §1, with “CHO” for “This receptor, therefore, remains an orphan. CHO”, “PBS.” for “PBS. The purities of the peptides and peptide contents were determined by HPCL and mass spectrometry as supplied by Genemed Synthesis. The bioluminescence assay was performed as described earlier[9][30] using a Victor2 1420 Multilabel Counter (Perkin Elmer).”

[4] = test system: C. gigas AKHR1-C; assay: Bioluminescence assay in CHO/G-16 cells expressing C. gigas AKHR1 splice variant C; format: cell-based, Crassostrea gigas
Description: as §2
as §1, with “CHO” for “This receptor, therefore, remains an orphan. CHO”, “PBS.” for “PBS. The purities of the peptides and peptide contents were determined by HPCL and mass spectrometry as supplied by Genemed Synthesis. The bioluminescence assay was performed as described earlier[9][30] using a Victor2 1420 Multilabel Counter (Perkin Elmer).”

[5] = test system: Aplysia californica; conditions: injection into the slug; cited from earlier work
Description: Johnson et al.[34] have recently shown that an AKH is present in the sea slug Aplysia californica. […] These findings are difficult to reconcile with our above considerations, but our own considerations are, of course, only hypothetical.

CC(C)[C@H](NC(=O)[C@@H]1CCC(=O)N1)C(=O)N[C@@H](CO)C(=O)N[C@@H](Cc1ccccc1)C(=O)N[C@@H](CO)C(=O)N[C@H](C(=O)N[C@@H](CC(N)=O)C(=O)N[C@@H](Cc1c[nH]c2ccccc12)C(=O)NCC(=O)N[C@@H](CO)C(N)=O)[C@@H](C)O [C. gigas AKH] ([pGlu]VSFSTNWGS-NH2)
Activation of AKHR2 [1]: could not be activated | Activation of AKHR1 splice variant D [2]: could not be activated | Bioluminescence response (activation) of AKHR1-A [3]: can be activated | Activation of AKHR1 splice variant C [4]: could not be activated

Dm-CCAP: D. melanogaster crustacean cardioactive peptide (PFCNAFTGC; ends and bridges not checked; cysteine pairing not given here; UniProt Q9VCW0 52-60, looked up)
Bioluminescence response (activation) of AKHR1-A [3]: not active

pQIHFSPDWGTamide [Aplysia californica AKH, molluscan true AKH of the sea slug]
Effect on defecation [5]: induce defecation | Effect on feeding [5]: reduce feeding | Influence on hemolymph glucose concentrations [5]: no influence

— article PMC5024129, “Adipokinetic hormones and their G protein-coupled receptors emerged in Lophotrochozoa” (Scientific Reports, 2016)
